# Test results: ChEMBL document CHEMBL1201862, “PubChem BioAssay data set” (2004)
# Active and inactive are the calls of the source.
# Legend:
# [1] = P. falciparum Dd2 growth inhibitors, dose response, SYBR Green, cherry-picked samples (AID 1159567); type: functional, cell-based
# [2] = growth inhibition of yeast DHODH-expressing 3D7 parasites – SYBR Green, dry powder samples, dose response (AID 1159570); type: functional, cell-based;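 further: parasite growth measured after 72 hours of compound exposure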
# [3] = Dd2 malaria parasite growth inhibition potency – SYBR Green, dry powder samples, dose response (AID 1159566); type: functional, cell-based;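 further: potency for growth inhibition with lower SYBR green DNA signal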
# [4] = growth inhibition of PfATP4-mutant resistant parasites – NITD609-resistant line, SYBR Green, dry powder, dose response (AID 1159571); type: functional, cell-based;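 further: parasites synchronized at ring stage by sorbitol before testing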
# [5] = toxicity to human HepG2 hepatoma cells – cell-based, plate reader, dry powder samples, cytotoxicity control, dose response (AID 1159569); type: functional;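 further: inhibitor potency with signal falling toward the positive control level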
# Protein Tat = target: T1, Protein Tat (Human immunodeficiency virus type 1 group M subtype B (isolate HXB2)(HIV-1), UniProt P04608); type: functional;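 further: tat binding to TAR RNA read out by fluorescence polarization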
# T1 sequence (P04608 whole entry): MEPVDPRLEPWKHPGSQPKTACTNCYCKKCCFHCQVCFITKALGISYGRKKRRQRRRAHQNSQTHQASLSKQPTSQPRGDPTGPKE
# Estrogen receptor beta [6] = target: T2, Estrogen receptor beta (Homo sapiens, UniProt Q92731);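 further: recombinant ER-beta bound to coactivator SRC1 peptide in presence of estradiol agonist; inhibitors block coactivator peptide binding and lower the FRET signal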
# Estrogen receptor beta [7] = target: T2, Estrogen receptor beta; assay: blockers of SRC-3 recruitment to ERβ – biochemical, ELISA, streptavidin-HRP readout, orthogonal assay, confirmation (AID 1060)
# Estrogen receptor = target: T3, Estrogen receptor (Homo sapiens, UniProt P03372);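 further: potency for inhibiting coactivator peptide recruitment to the receptor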
# T3 sequence (P03372 whole entry): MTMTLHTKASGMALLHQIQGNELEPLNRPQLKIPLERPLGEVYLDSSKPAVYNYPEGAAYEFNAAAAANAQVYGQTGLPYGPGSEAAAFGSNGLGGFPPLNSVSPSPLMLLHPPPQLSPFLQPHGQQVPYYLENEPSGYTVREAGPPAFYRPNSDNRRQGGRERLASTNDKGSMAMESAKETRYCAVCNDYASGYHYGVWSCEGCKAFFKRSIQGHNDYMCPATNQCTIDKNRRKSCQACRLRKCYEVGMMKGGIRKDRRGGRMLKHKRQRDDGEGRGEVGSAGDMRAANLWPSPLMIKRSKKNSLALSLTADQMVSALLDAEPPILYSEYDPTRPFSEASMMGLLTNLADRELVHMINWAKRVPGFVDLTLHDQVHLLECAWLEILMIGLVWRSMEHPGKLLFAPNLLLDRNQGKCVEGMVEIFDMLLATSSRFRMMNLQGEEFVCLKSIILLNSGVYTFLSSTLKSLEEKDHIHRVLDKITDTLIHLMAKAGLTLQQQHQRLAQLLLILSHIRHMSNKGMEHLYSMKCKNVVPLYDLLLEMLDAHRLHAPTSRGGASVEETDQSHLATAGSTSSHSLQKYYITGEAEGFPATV
# [8] = cytotoxicity toward HCT116 cells – cell-based, CellTiter-Glo luminescence, IC50, dose response (AID 1117332); type: functional; conditions: HCT-116
# [9] = cytotoxicity toward HT-29 cells – cell-based, CellTiter-Glo luminescence, IC50, dose response (AID 1117330); type: functional
# [10] = HCT116 cell viability decrease, GSK3B pretreatment – CellTiter-Glo, IC50, dose response (AID 1117339); type: functional; conditions: HCT-116
# [11] = SNU-C1 cell viability reduction, dose response, CellTiter-Glo luminescence (AID 1117323); type: functional, cell-based
# [12] = cytotoxicity toward Colo320 cells – cell-based, CellTiter-Glo luminescence, IC50, dose response (AID 1117334); type: functional; conditions: COLO 320
# [13] = CellTiter-Glo luminescence survival assay, SW480 colon tumor line, concentration-response curve, half-maximal inhibitory concentration (AID 1117338); type: functional
# [14] = Reduced DLD-1 viability, concentration-response, CellTiter-Glo luminescence (AID 1117352); type: functional
# [15] = RKO cell viability reduction, dose response, CellTiter-Glo luminescence (AID 1117322); type: functional
# [16] = M. tuberculosis H37Rv growth inhibitors, H37Rv strain (AID 1626); type: functional
# [17] = target: Sphingosine 1-phosphate receptor 2 (Homo sapiens, UniProt O95136); assay: Dose Response Cell Based Assay for Agonists of the S1P2 Receptor. [Related pubchem assays: 729, 736, 843 ]; type: functional
# Ephrin type-A receptor 4 = Ephrin type-A receptor 4 (Mus musculus, UniProt Q03137); assay: EphA4 ligand-binding antagonists – biochemical, colorimetric, mouse EphA4, primary screen (AID 689); type: functional
# [18] = Luminescence Cell-Based Dose Response HTS to Identify Activators of Luciferase Translation or Activity in H4 […] Cells. [Related pubchem assays: 1829 (Project Summary), 1814 (Primary HTS)]; type: functional
# [19] = target: Induced myeloid leukemia cell differentiation protein Mcl-1 (Homo sapiens, UniProt Q07820); type: functional
# [20] = Luminescence Cell-Based Dose Confirmation HTS to Identify Activators of 5'UTR Stem-Loop Driven Alpha-Synuclein mRNA Translation in H4 Neuroglioblastoma Cells. [Related pubchem assays: 1829 (Project Summary), 1814 (Primary HTS)]; type: functional
# [21] = target: Heat shock protein HSP 90-alpha (Homo sapiens, UniProt P07900); type: functional, organism-based
# H4 = assay: Luminescence Cell-Based Dose Response HTS to Identify Activators of 5'UTR Stem-Loop Driven Prion Protein mRNA Translation in H4 Neuroglioblastoma Cells. [Related pubchem assays: 1829 (Project Summary), 1814 (Primary HTS)]; type: functional; conditions: Homo sapiens
# [22] = Trypanosoma cruzi replication inhibitors in host cells – cell-based, plate reader, dry powder samples, dose response (AID 651845); type: functional
# [23] = host muscle cell viability loss – plate reader, dry powder, counter-screen for T. cruzi inhibitor project, dose response (AID 651895); type: functional, cell-based
# [24] = African trypanosome bloodstream form growth inhibition – STIB900 strain, plate reader, dry powder, dose response (AID 651894); type: functional, cell-based
# [25] = antimalarial activity against erythrocytic parasites – NF54 strain, plate reader, dry powder, dose response (AID 651889); type: functional, cell-based
# [26] = anti-trypanosomal activity in BESM host cells – imaging, CA-I/72 strain, bovine embryo skeletal muscle, dry powder, dose response (AID 651885); type: functional, cell-based
# [27] = T. cruzi growth inhibition in host cells, dose response, cell-based, plate reader, dry powder, set 2 (AID 652275); type: functional
# [28] = intracellular Chagas parasite inhibition in myoblasts – Tulahuen strain, L-6 host cells, dry powder, dose response (AID 651890); type: functional, cell-based
# [29] = antileishmanial activity on axenic amastigotes – plate reader, dry powder, dose response (AID 651892); type: functional, cell-based
# T2 sequence (Q92731 whole entry): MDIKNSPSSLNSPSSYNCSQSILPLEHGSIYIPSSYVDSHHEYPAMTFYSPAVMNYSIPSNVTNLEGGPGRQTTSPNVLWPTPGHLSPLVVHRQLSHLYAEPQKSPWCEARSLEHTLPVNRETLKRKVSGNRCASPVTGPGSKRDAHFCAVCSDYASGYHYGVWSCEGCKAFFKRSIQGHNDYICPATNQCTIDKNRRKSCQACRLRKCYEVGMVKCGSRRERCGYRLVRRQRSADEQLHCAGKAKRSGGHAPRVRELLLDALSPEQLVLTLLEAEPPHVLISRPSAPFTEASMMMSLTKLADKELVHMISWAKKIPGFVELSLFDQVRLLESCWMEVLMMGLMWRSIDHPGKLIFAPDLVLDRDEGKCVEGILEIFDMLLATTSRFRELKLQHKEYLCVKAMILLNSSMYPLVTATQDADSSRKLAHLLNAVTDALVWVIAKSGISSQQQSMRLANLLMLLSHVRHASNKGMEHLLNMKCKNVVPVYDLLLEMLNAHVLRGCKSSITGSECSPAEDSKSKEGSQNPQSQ
# Ephrin type-A receptor 4, sequence (Q03137 whole entry): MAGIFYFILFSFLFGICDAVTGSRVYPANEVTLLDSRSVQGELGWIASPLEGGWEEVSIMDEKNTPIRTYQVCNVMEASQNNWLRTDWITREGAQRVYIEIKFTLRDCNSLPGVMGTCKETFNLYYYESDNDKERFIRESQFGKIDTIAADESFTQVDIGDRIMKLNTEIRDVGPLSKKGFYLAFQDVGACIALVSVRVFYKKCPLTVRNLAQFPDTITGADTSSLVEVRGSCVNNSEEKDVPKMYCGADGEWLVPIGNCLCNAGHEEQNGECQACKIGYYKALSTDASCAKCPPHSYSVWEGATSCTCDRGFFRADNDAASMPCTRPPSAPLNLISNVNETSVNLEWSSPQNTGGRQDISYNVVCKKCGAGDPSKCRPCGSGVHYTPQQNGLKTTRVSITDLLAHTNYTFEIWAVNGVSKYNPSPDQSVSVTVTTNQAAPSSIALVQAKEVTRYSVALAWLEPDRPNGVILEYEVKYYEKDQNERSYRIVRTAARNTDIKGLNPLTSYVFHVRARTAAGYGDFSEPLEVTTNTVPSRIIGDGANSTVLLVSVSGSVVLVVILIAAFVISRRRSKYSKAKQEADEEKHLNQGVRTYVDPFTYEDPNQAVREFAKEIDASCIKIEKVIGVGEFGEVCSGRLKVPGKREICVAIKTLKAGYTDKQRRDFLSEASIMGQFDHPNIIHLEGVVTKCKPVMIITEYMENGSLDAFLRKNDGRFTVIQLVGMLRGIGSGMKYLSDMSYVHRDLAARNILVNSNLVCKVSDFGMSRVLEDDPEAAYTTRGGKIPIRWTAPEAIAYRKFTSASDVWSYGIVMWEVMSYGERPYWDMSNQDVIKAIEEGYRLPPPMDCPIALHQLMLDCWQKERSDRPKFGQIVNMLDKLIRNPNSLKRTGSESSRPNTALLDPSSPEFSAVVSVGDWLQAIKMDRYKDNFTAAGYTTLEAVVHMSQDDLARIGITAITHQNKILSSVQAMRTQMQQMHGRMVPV
# Sphingosine 1-phosphate receptor 2, sequence (O95136 whole entry): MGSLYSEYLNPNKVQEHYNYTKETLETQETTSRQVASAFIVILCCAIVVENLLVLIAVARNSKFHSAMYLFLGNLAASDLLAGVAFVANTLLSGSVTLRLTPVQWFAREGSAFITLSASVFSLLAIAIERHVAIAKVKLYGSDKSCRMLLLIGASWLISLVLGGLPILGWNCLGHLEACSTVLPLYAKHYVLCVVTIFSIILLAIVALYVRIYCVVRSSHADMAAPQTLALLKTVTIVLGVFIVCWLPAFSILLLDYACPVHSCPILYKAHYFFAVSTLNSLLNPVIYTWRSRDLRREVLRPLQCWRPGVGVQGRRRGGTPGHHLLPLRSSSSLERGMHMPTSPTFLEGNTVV
# Induced myeloid leukemia cell differentiation protein Mcl-1, sequence (Q07820 whole entry): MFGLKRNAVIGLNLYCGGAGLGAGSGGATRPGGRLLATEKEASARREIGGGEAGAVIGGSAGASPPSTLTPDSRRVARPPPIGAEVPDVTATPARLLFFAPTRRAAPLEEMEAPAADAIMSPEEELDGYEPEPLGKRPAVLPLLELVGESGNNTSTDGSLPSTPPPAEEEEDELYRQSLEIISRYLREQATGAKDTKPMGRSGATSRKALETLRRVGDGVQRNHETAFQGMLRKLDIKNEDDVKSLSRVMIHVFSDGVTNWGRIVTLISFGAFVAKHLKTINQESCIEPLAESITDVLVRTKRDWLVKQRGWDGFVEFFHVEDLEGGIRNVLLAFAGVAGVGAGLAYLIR
smiles,measurement,setting,value
CCC(=O)N1CCC2(CC1)CN(Cc1cc(F)ccc1F)[C@H](CO)c1[nH]c3cc(OC)ccc3c12,AC50,[1],2.98 µM (active)
same,AC50,[2],1.83 µM (active)
same,AC50,[3],1.96 µM (active)
same,AC50,[4],1.43 µM (active)
same,AC50,[5],> 100 µM (inactive)
Cc1noc(C)c1COc1ccc(C(=O)OCC(=O)N2c3ccccc3NC(=O)C2(C)C)cc1,IC50,Protein Tat,> 100 µM (inconclusive)
same,IC50,Estrogen receptor beta [6],2.72 µM (active)
same,IC50,Estrogen receptor beta [7],3.98 µM (not active)
same,IC50,Estrogen receptor,8.74 µM (active)
Cc1cc2nc3c(=O)[nH]c(=O)nc-3n(C[C@H](O)[C@H](O)[C@H](O)COP(=O)(O)OP(=O)(O)OC[C@H]3O[C@@H](n4cnc5c(N)ncnc54)[C@H](O)[C@H]3O)c2cc1C,IC50,[8],> 20 µM (inactive)
same,IC50,[9],> 20 µM (inactive)
same,IC50,[10],> 20 µM (inactive)
same,IC50,[11],> 20 µM (inactive)
same,IC50,[12],> 20 µM (inactive)
same,IC50,[13],> 20 µM (inactive)
same,IC50,[14],> 20 µM (inactive)
same,IC50,[15],> 20 µM (inactive)
COc1ccc(NC(=O)CCCSc2ccccc2)cc1,IC50,[16],> 100 µM (active)
same,IC50,Protein Tat,> 100 µM (active)
N#CCN1CCN(CC(=O)Nc2cccc3ccccc23)CC1,EC50,[17],> 50 µM (not active)
CCOC(=O)c1c(C)oc2c1c(C(c1cccnc1)N1CCOCC1)c(O)c1ccccc12 (configuration not stated),IC50,Ephrin type-A receptor 4,3.58 µM (active)
same,EC50,[18],106 µM (active)
same,IC50,[19],1.17 µM (active)
same,EC50,[20],12.5 µM (active)
same,AC50,[21],8.43 µM (active)
same,EC50,H4,> 120 µM (not active)
C[C@H](CO)N1C[C@H](C)[C@@H](CN(C)Cc2ccc(Oc3ccccc3)cc2)Oc2c(NC(=O)c3ccncc3)cccc2C1=O,AC50,[22],0.00152 µM (active)
same,IC50,[23],17.9 µM (inactive)
same,IC50,[24],3.73 µM (inactive)
same,IC50,[25],0.872 µM (inactive)
same,IC50,[26],> 20 µM (inactive)
same,AC50,[27],0.000469 µM (active)
same,IC50,[28],0.0215 µM (active)
same,IC50,[29],26.3 µM (inactive)
COC(=O)c1ccccc1C(=O)OC [DIMETHYL PHTHALATE],IC50,[8],> 20 µM (inactive)
same,IC50,[9],> 20 µM (inactive)
same,IC50,[10],> 20 µM (inactive)
same,IC50,[11],> 20 µM (inactive)
same,IC50,[12],> 20 µM (inactive)
same,IC50,[13],> 20 µM (inactive)
same,IC50,[14],> 20 µM (inactive)
same,IC50,[15],> 20 µM (inactive)
